Laboratory results reported in patent publication US11492385B2, “Long-acting co-agonists of the glucagon and GLP-1 receptors” (Merck Sharp & Dohme Corp., priority 2015, dated 2022).
Starred links: 1 amine or outer side, 2 acyl side, 3 side chain; linkers in the order of their positions; H or OH if unused. Non-standard residues stand in square brackets, D forms with d. Residues, ends and D or L forms follow the SMILES beside them. Groups on a side chain read outwards from the residue. *: point of attachment. Phe(4-CH2NH2) = NCc1ccc(C[C@H](N)C(=O)O)cc1; C18 diacid = O=C(O)CCCCCCCCCCCCCCCCC(=O)*; C16 diacid = O=C(O)CCCCCCCCCCCCCCC(=O)*; γGlu = O=C(O)[C@H](CCC(=O)[*:2])N[*:1]; Met(O2) = CS(=O)(=O)CC[C@H](N)C(=O)O; AEEA = NCCOCCOCC(=O)O; Aib = CC(C)(N)C(=O)O

What was measured:
human GLP1R = target: T1, human GLP1R (Homo sapiens, UniProt P43220); experiment: cAMP activity assay, cells expressing human GLP1R; assay type: cell-based; details: cAMP production, assay buffer with or without 20% human serum (not stated which)
T1 construct: expressed in transfected cells; kept under Blasticidin and Hygromycin selection
T1 sequence (P43220 24-463): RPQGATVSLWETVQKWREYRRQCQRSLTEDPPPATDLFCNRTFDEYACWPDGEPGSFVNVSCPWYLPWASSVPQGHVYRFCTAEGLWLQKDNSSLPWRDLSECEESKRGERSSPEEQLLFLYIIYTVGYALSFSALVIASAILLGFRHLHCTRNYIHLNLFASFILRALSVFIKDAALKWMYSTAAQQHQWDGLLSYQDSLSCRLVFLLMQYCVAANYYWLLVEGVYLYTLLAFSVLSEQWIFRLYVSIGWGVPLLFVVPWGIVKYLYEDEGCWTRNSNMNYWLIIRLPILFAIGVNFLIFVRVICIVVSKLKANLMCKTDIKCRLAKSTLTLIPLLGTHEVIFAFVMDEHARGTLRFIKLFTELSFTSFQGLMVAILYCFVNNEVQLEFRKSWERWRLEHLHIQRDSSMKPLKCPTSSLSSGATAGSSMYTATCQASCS
Experimental: (§1) Activity of the peptides at the Glucagon receptor (GCGR) and GLP-1 receptor (GLP1R) was measured in a cAMP activity assay. Peptides were dissolved in 100% DMSO and serially diluted to generate 10 point titrations. The peptide solutions were then transferred into 384-well assay plates (150 nL/well). […] Production of cAMP was determined using […] kits (DiscoverX) following manufacturer protocol. The plates were incubated for overnight at room temperature in the dark. Luminescence was measured using an EnVision Multilabel plate reader (Perkin Elmer). Native GLP-1 and Glucagon (Bachem) are used as control peptides. EC50 values were calculated using uses a 4 parameter logistic fit based on the Levenberg-Marquardt algorithm.

human GCGR = target: T2, human GCGR (Homo sapiens, UniProt P47871); experiment: cAMP activity assay, cells expressing human GCGR; assay type: cell-based; details: for EC50: cAMP production, cells expressing human GCGR, assay buffer with or without 20% human serum (not stated which), read-out: GCGR EC50 human; for hGCGR/hGLP1R (hTone): ratio of human GCGR EC50 to human GLP1R EC50
T2 construct: expressed in transfected cells; kept under Blasticidin and Hygromycin selection
T2 sequence (P47871 26-477): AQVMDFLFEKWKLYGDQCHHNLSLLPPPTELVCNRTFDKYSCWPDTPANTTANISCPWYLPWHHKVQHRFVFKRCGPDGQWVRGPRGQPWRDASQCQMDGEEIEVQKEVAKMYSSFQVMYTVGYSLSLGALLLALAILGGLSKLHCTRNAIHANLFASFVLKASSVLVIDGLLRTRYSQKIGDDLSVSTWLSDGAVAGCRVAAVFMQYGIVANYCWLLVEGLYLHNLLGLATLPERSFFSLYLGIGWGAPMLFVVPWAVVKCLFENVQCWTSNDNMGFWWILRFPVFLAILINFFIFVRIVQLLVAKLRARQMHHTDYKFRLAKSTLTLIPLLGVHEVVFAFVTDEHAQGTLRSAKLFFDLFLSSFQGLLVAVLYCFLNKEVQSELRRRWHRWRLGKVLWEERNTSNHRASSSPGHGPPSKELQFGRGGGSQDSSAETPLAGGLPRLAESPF
Experimental: as §1

| SMILES | EC50 (human GLP1R) | EC50 (human GCGR) | hGCGR/hGLP1R (hTone) (human GCGR) |
| --- | --- | --- | --- |
| CC(C)C[C@H](NC(=O)[C@H](Cc1c[nH]c2ccccc12)NC(=O)[C@H](CCC(N)=O)NC(=O)[C@@H](NC(=O)[C@H](Cc1ccccc1)NC(=O)[C@H](CC(=O)O)NC(=O)[C@H](CCC(N)=O)NC(=O)[C@H](C)NC(=O)[C@H](C)NC(=O)[C@H](CCCNC(=N)N)NC(=O)C(C)(C)NC(=O)[C@H](CC(=O)O)NC(=O)[C@H](CC(C)C)NC(=O)[C@H](Cc1ccc(O)cc1)NC(=O)[C@H](CCCCN)NC(=O)[C@H](CO)NC(=O)[C@H](CCCCNC(=O)COCCOCCNC(=O)COCCOCCNC(=O)CC[C@H](NC(=O)CCCCCCCCCCCCCCCCC(=O)O)C(=O)O)NC(=O)[C@H](CC(=O)O)NC(=O)[C@H](CO)NC(=O)[C@@H](NC(=O)[C@H](Cc1ccccc1)NC(=O)[C@@H](NC(=O)CNC(=O)[C@H](CCC(N)=O)NC(=O)C(C)(C)NC(=O)[C@@H](N)Cc1c[nH]cn1)[C@@H](C)O)[C@@H](C)O)C(C)C)C(=O)N[C@@H](CCS(C)(=O)=O)C(=O)N[C@@H](CC(=O)O)C(=O)N[C@H](C(N)=O)[C@@H](C)O [compound 4] (H-H[Aib]QGTFTSDK([AEEA-AEEA-γGlu-C18 diacid])SKYLD[Aib]RAAQDFVQWL[Met(O2)]DT-NH2; N-terminus assumed) | 270 pM | 1420 pM | 5.36 |
| CC(C)C[C@H](NC(=O)[C@H](Cc1ccc(O)cc1)NC(=O)[C@H](CCCCN)NC(=O)[C@H](CO)NC(=O)[C@H](CCCCNC(=O)COCCOCCNC(=O)COCCOCCNC(=O)CC[C@H](NC(=O)CCCCCCCCCCCCCCCCC(=O)O)C(=O)O)NC(=O)[C@H](CC(=O)O)NC(=O)[C@H](CO)NC(=O)[C@@H](NC(=O)[C@H](Cc1ccccc1)NC(=O)[C@@H](NC(=O)CNC(=O)[C@H](CCC(N)=O)NC(=O)[C@@H](CO)NC(=O)[C@@H](N)Cc1c[nH]cn1)[C@@H](C)O)[C@@H](C)O)C(=O)N[C@@H](CC(=O)O)C(=O)N[C@@H](C)C(=O)N[C@@H](CCCNC(=N)N)C(=O)N[C@@H](C)C(=O)N[C@@H](C)C(=O)N[C@@H](CCC(N)=O)C(=O)N[C@@H](CC(=O)O)C(=O)N[C@@H](Cc1ccccc1)C(=O)N[C@H](C(=O)N[C@@H](CCC(N)=O)C(=O)N[C@@H](Cc1c[nH]c2ccccc12)C(=O)N[C@@H](CC(C)C)C(=O)N[C@@H](CC(C)C)C(=O)N[C@@H](CC(=O)O)C(=O)N[C@H](C(N)=O)[C@@H](C)O)C(C)C [compound 6] (H-H[dS]QGTFTSDK([AEEA-AEEA-γGlu-C18 diacid])SKYLDARAAQDFVQWLLDT-NH2) | 1370 pM | 1700 pM | 1.24 |
| CC(C)C[C@H](NC(=O)[C@H](Cc1ccc(O)cc1)NC(=O)[C@H](CCCCN)NC(=O)[C@H](CO)NC(=O)[C@H](CCCCNC(=O)CC[C@H](NC(=O)CC[C@H](NC(=O)CCCCCCCCCCCCCCC(=O)O)C(=O)O)C(=O)O)NC(=O)[C@H](CC(=O)O)NC(=O)[C@H](CO)NC(=O)[C@@H](NC(=O)[C@H](Cc1ccccc1)NC(=O)[C@@H](NC(=O)CNC(=O)[C@H](CCC(N)=O)NC(=O)[C@@H](CO)NC(=O)[C@@H](N)Cc1c[nH]cn1)[C@@H](C)O)[C@@H](C)O)C(=O)N[C@@H](CC(=O)O)C(=O)N[C@@H](CCC(=O)O)C(=O)N[C@@H](CCCNC(=N)N)C(=O)N[C@@H](C)C(=O)N[C@@H](C)C(=O)N[C@@H](CCC(N)=O)C(=O)N[C@@H](CC(=O)O)C(=O)N[C@@H](Cc1ccccc1)C(=O)N[C@H](C(=O)N[C@@H](CCC(N)=O)C(=O)N[C@@H](Cc1c[nH]c2ccccc12)C(=O)N[C@@H](CC(C)C)C(=O)N[C@@H](CC(C)C)C(=O)N[C@@H](CCCCN)C(=O)N[C@H](C(N)=O)[C@@H](C)O)C(C)C [compound 9] | 670 pM | 1980 pM | 3.22 |
| CC(C)C[C@H](NC(=O)[C@H](Cc1ccc(O)cc1)NC(=O)[C@H](CCCCN)NC(=O)[C@H](CO)NC(=O)[C@H](Cc1ccc(CNC(=O)COCCOCCNC(=O)COCCOCCNC(=O)CC[C@H](NC(=O)CCCCCCCCCCCCCCC(=O)O)C(=O)O)cc1)NC(=O)[C@H](CC(=O)O)NC(=O)[C@H](CO)NC(=O)[C@@H](NC(=O)[C@H](Cc1ccccc1)NC(=O)[C@@H](NC(=O)CNC(=O)[C@H](CCC(N)=O)NC(=O)[C@@H](CO)NC(=O)[C@@H](N)Cc1c[nH]cn1)[C@@H](C)O)[C@@H](C)O)C(=O)N[C@@H](CC(=O)O)C(=O)N[C@@H](CCC(=O)O)C(=O)N[C@@H](CCCNC(=N)N)C(=O)N[C@@H](C)C(=O)N[C@@H](C)C(=O)N[C@@H](CCC(N)=O)C(=O)N[C@@H](CC(=O)O)C(=O)N[C@@H](Cc1ccccc1)C(=O)N[C@H](C(=O)N[C@@H](CCC(N)=O)C(=O)N[C@@H](Cc1c[nH]c2ccccc12)C(=O)N[C@@H](CC(C)C)C(=O)N[C@@H](CC(C)C)C(=O)N[C@@H](CCCCN)C(=O)N[C@H](C(N)=O)[C@@H](C)O)C(C)C [compound 10] (H-H[dS]QGTFTSD[Phe(4-CH2NH2)]([AEEA-AEEA-γGlu-C16 diacid])SKYLDERAAQDFVQWLLKT-NH2; N-terminus assumed) | 460 pM | 120 pM | 0.26 |

Now those with a lower EC50 (human GLP1R), led by results:

| EC50 (human GLP1R) | EC50 (human GCGR) | hGCGR/hGLP1R (hTone) (human GCGR) | SMILES |
| --- | --- | --- | --- |
| 200 pM | 50 pM | 0.23 | CC(C)C[C@H](NC(=O)[C@H](Cc1ccc(O)cc1)NC(=O)[C@H](CCCCN)NC(=O)[C@H](CO)NC(=O)[C@H](Cc1ccc(O)cc1)NC(=O)[C@H](CC(=O)O)NC(=O)[C@H](CO)NC(=O)[C@@H](NC(=O)[C@H](Cc1ccccc1)NC(=O)[C@@H](NC(=O)CNC(=O)[C@H](CCC(N)=O)NC(=O)[C@@H](CO)NC(=O)[C@@H](N)Cc1c[nH]cn1)[C@@H](C)O)[C@@H](C)O)C(=O)N[C@@H](CC(=O)O)C(=O)N[C@@H](C)C(=O)N[C@@H](CCCNC(=N)N)C(=O)N[C@@H](C)C(=O)N[C@@H](C)C(=O)N[C@@H](CCC(N)=O)C(=O)N[C@@H](CCCCNC(=O)COCCOCCNC(=O)COCCOCCNC(=O)CC[C@H](NC(=O)CCCCCCCCCCCCCCC(=O)O)C(=O)O)C(=O)N[C@@H](Cc1ccccc1)C(=O)N[C@H](C(=O)N[C@@H](CCC(N)=O)C(=O)N[C@@H](Cc1c[nH]c2ccccc12)C(=O)N[C@@H](CC(C)C)C(=O)N[C@@H](CC(C)C)C(=O)N[C@@H](CC(=O)O)C(=O)N[C@H](C(N)=O)[C@@H](C)O)C(C)C [compound 3] (H-H[dS]QGTFTSDYSKYLDARAAQK([AEEA-AEEA-γGlu-C16 diacid])FVQWLLDT-NH2) |
| 110 pM | 970 pM | 8.80 | CC(C)C[C@H](NC(=O)[C@H](Cc1c[nH]c2ccccc12)NC(=O)[C@H](CCC(N)=O)NC(=O)[C@@H](NC(=O)[C@H](Cc1ccccc1)NC(=O)[C@H](CC(=O)O)NC(=O)[C@H](CCC(N)=O)NC(=O)[C@H](C)NC(=O)[C@H](C)NC(=O)[C@H](CCCNC(=N)N)NC(=O)C(C)(C)NC(=O)[C@H](CC(=O)O)NC(=O)[C@H](CC(C)C)NC(=O)[C@H](Cc1ccc(O)cc1)NC(=O)[C@H](CCCCNC(=O)COCCOCCNC(=O)COCCOCCNC(=O)CC[C@H](NC(=O)CCCCCCCCCCCCCCCCC(=O)O)C(=O)O)NC(=O)[C@H](CO)NC(=O)[C@H](Cc1ccc(O)cc1)NC(=O)[C@H](CC(=O)O)NC(=O)[C@H](CO)NC(=O)[C@@H](NC(=O)[C@H](Cc1ccccc1)NC(=O)[C@@H](NC(=O)CNC(=O)[C@H](CCC(N)=O)NC(=O)C(C)(C)NC(=O)[C@@H](N)Cc1c[nH]cn1)[C@@H](C)O)[C@@H](C)O)C(C)C)C(=O)N[C@@H](CCS(C)(=O)=O)C(=O)N[C@@H](CC(=O)O)C(=O)N[C@H](C(N)=O)[C@@H](C)O [compound 5] (H-H[Aib]QGTFTSDYSK([AEEA-AEEA-γGlu-C18 diacid])YLD[Aib]RAAQDFVQWL[Met(O2)]DT-NH2) |
| 30 pM | 420 pM | 15.26 | CC(C)C[C@H](NC(=O)[C@H](Cc1ccc(O)cc1)NC(=O)[C@H](CCCCN)NC(=O)[C@H](CO)NC(=O)[C@H](Cc1ccc(CNC(=O)COCCOCCNC(=O)COCCOCCNC(=O)CC[C@H](NC(=O)CCCCCCCCCCCCCCC(=O)O)C(=O)O)cc1)NC(=O)[C@H](CC(=O)O)NC(=O)[C@H](CO)NC(=O)[C@@H](NC(=O)[C@H](Cc1ccccc1)NC(=O)[C@@H](NC(=O)CNC(=O)[C@H](CCC(N)=O)NC(=O)C(C)(C)NC(=O)[C@@H](N)Cc1c[nH]cn1)[C@@H](C)O)[C@@H](C)O)C(=O)N[C@@H](CC(=O)O)C(=O)N[C@@H](CCC(=O)O)C(=O)N[C@@H](CCCNC(=N)N)C(=O)N[C@@H](C)C(=O)N[C@@H](C)C(=O)N[C@@H](CCC(N)=O)C(=O)N[C@@H](CC(=O)O)C(=O)N[C@@H](Cc1ccccc1)C(=O)N[C@H](C(=O)N[C@@H](CCC(N)=O)C(=O)N[C@@H](Cc1c[nH]c2ccccc12)C(=O)N[C@@H](CC(C)C)C(=O)N[C@@H](CC(C)C)C(=O)N[C@@H](CCCCN)C(=O)N[C@H](C(N)=O)[C@@H](C)O)C(C)C [compound 8] (H-H[Aib]QGTFTSD[Phe(4-CH2NH2)]([AEEA-AEEA-γGlu-C16 diacid])SKYLDERAAQDFVQWLLKT-NH2) |
